Holding throughout (type): in vivo, C57BL/6J mice
Data set [1] can be described thus: Body weight in the DPO-induced erythrocytosis study. Conditions: 30 or 60 mg/kg orally once daily, 8-day treatment, DPO model (FIG. 2B). How it is done:
(§1) Briefly, C57BL/6J mice were administrated with DPO subcutaneously at 10 μg/kg/week for 2 weeks to induce erythrocytosis resembling the pathological process of polycythemia vera (FIG. 2A). 30 mg/kg or 60 mg/kg of GlyT1 inhibitor bitopertin or vehicle control was administrated orally into wild type C57BL/6J mice (10 mice per group for the vehicle and 30 mg/kg groups; 15 mice for the 60 mg/kg group) once daily from day 7 to day 15. The 60 mg/kg group was dosed at 20 mg/kg on day 7, 40 mg/kg on day 8-9, 50 mg/kg on day 10-11, 60 mg/kg on day 12-15. Blood samples were collected from submaxillary on day 0 before the first DPO administration, on day 7 before the first dose of GlyT1 inhibitor, and on day 15, 6 hours after the dosing of GlyT1 inhibitor for CBC panel analysis using Sysmex XN-1000™ hematology analyzer.

Data set [2] is described as follows: Plasma drug concentration in the EPO-induced erythrocytosis study. Conditions: C57BL/6J, mouse, po, 6 hours after the last dose, 30 mg/kg orally once daily day 1 to 15, mice (FIG. 1C). An excerpt: (§2) The EPO-induced secondary erythrocytosis model was used to evaluate the in vivo pharmacodynamic effect of GlyT1 inhibitor in preventing, treating, or reducing the progression rate and/or severity of polycythemia vera. Erythropoietin (EPO) stimulates the production of red blood cells and results in increased hematocrit in mice after daily dosing for 7 days at 50 IU. Therefore, the EPO model mimics the hematological parameters of polycythemia vera where JAK2 mutation drives the erythrocytosis. Briefly, 30 mg/kg of GlyT1 inhibitor bitopertin or vehicle control was administrated orally into wildtype C57BL/6J mice (10 mice per group) once daily from day 1 to day 15. 50 IU EPO was administrated daily by intraperitoneal route from day 8 to day 14 to induce erythrocytosis resembling the pathological process of polycythemia vera (FIG. 1A). Blood samples were collected from submaxillary on day 8 before the first EPO administration and on day 15, 6 hours after the last dose of GlyT1 inhibitor for CBC panel analysis using Sysmex XN-1000™ hematology analyzer. Bioanalysis of drug concentration was performed in plasma collected 6 hours after the last dose. All mice were weighed and humanely euthanized. The spleen was weighed and the spleen index was calculated via dividing the weight of spleen by the whole-body weight.

The nature of data set [3]: Body weight in the EPO-induced erythrocytosis study. The note with it: 30 mg/kg orally once daily, 14-day treatment, EPO model (FIG. 1B).
Source text: as §2

The subject of data set [4] is EPO-induced secondary erythrocytosis model. The experiment in a line: EPO-induced secondary erythrocytosis murine model: spleen index and CBC panel. The note with it: 30 mg/kg orally once daily.
Source text: as §2

The test system of data set [5] is DPO-induced secondary erythrocytosis model. The data set can be described thus: DPO-induced secondary erythrocytosis murine model: CBC panel. On the procedure:
Darbepoietin-alpha (DPO) is a long-lasting analogue of EPO. To investigate the in vivo pharmacodynamic effect of GlyT1 inhibitor in preventing, treating, or reducing the progression rate and/or severity of polycythemia vera for longer periods, DPO was used to stimulate the production of red blood cells and mimicking the hematological features of polycythemia vera where JAK2 mutation drives the erythrocytosis.
as §1

Consider 1 compound from patent publication US20240269132A1, “COMPOSITIONS AND METHODS FOR TREATING POLYCYTHEMIA” (Disc Medicine, Inc., priority 0001, published 2024).

The structures appear in SMILES notation.

Take `C[C@H](Oc1ccc(S(C)(=O)=O)cc1C(=O)N1CCN(c2ncc(C(F)(F)F)cc2F)CC1)C(F)(F)F` [bitopertin]: the body-weight changes result in data set [1] and in data set [3] was “No major body-weight changes” each time. Also, in data set [2], the concentration at 6 h was 639 ± 38 ng/mL. Moreover, the “hematocrit (HCT %)” value in data set [4] (EPO model, day 15 (FIG. 1E)) is reported as “reduced”; in data set [5] (30 or 60 mg/kg orally once daily day 7-15, DPO model, in a dose dependent manner (FIG. 2C)) it was “reduced”. Also, the RBC count entry in data set [4] (EPO model, day 15 (FIG. 1F)) was “reduced”; in data set [5] (30 or 60 mg/kg orally once daily day 7-15, DPO model, in a dose dependent manner (FIG. 2D)), “reduced”. For the same compound, the Hemoglobin levels result in data set [4] (EPO model, day 15 (FIG. 1G)) is on record as “reduced”. Further, the “spleen index (spleen weight / whole-body weight)” value in data set [4] (EPO 50 IU i.p. day 8-14, EPO + vehicle 1.56%, normal mice 0.39% (FIG. 1D)) was 1.26%. For the same compound, the “reticulocyte hemoglobin (RET-He)” value in data set [5] (30 or 60 mg/kg orally once daily day 7-15, DPO model (FIG. 2F)) is listed as “significant reduction”. Further, in data set [5] (30 or 60 mg/kg orally once daily day 7-15, DPO model (FIG. 2G)), the “mean corpuscular hemoglobin (MCH)” value is “significant reduction”. Besides, the “mean corpuscular volume (MCV)” value in data set [5] (30 or 60 mg/kg orally once daily day 7-15, DPO model (FIG. 2H)) is listed as “slightly reduced”. Besides, the “Hemoglobin levels (HGB)” value in data set [5] (30 or 60 mg/kg orally once daily day 7-15, DPO model, in a dose dependent manner (FIG. 2E)) was “reduced”.
